What was measured:
Assay in all cases: relative viability (nuclei count vs DMSO), 5 days (fraction); higher = more cells survive
Tivantinib + Olaparib = compound: O=C1NC(=O)[C@@H](c2cn3c4c(cccc24)CCC3)[C@@H]1c1c[nH]c2ccccc12 [Tivantinib] + O=C(c1cc(Cc2n[nH]c(=O)c3ccccc23)ccc1F)N1CCN(C(=O)C2CC2)CC1 [Olaparib] (partner 8 µM)
Method in brief: (§1)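 Lung cancer cell lines were pin-tool dosed in 1536-well plates on the day after seeding, with either a lone drug or a fixed anchor-drug dose plus five library-drug doses (not always all listed) in √10 steps. Nuclei were counted on 4× images after 5 days. Relative viability is the ratio of treated-well to vehicle-well nuclei counts, with each value a median of duplicate plates.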

Tivantinib + Tozasertib = compound: O=C1NC(=O)[C@@H](c2cn3c4c(cccc24)CCC3)[C@@H]1c1c[nH]c2ccccc12 [Tivantinib] + Cc1cc(Nc2cc(N3CCN(C)CC3)nc(Sc3ccc(NC(=O)C4CC4)cc3)n2)n[nH]1 [Tozasertib] (partner 0.1 µM)
Method in brief: as §1

Tivantinib + Luminespib = compound: O=C1NC(=O)[C@@H](c2cn3c4c(cccc24)CCC3)[C@@H]1c1c[nH]c2ccccc12 [Tivantinib] + CCNC(=O)c1noc(-c2cc(C(C)C)c(O)cc2O)c1-c1ccc(CN2CCOCC2)cc1 [Luminespib] (partner 0.01 µM)
Method in brief: as §1

Crenolanib + Vorinostat = compound: CC1(COc2ccc3c(c2)ncn3-c2ccc3cccc(N4CCC(N)CC4)c3n2)COC1 [Crenolanib] + O=C(CCCCCCC(=O)Nc1ccccc1)NO [Vorinostat] (partner 1 µM)
Method in brief: as §1

Cell Line	relative viability (Tivantinib + Olaparib; first compound 0.01 µM)	relative viability (Tivantinib + Olaparib; first compound 0.03162 µM)	relative viability (Tivantinib + Olaparib; first compound 0.1 µM)	relative viability (Tivantinib + Olaparib; first compound 0.3162 µM)	relative viability (Tivantinib + Tozasertib; first compound 0.01 µM)	relative viability (Tivantinib + Tozasertib; first compound 0.03162 µM)	relative viability (Tivantinib + Tozasertib; first compound 0.1 µM)	relative viability (Tivantinib + Tozasertib; first compound 0.3162 µM)	relative viability (Tivantinib + Luminespib; first compound 0.01 µM)	relative viability (Tivantinib + Luminespib; first compound 0.03162 µM)	relative viability (Tivantinib + Luminespib; first compound 0.1 µM)	relative viability (Tivantinib + Luminespib; first compound 0.3162 µM)	relative viability (Crenolanib + Vorinostat; first compound 0.01 µM)	relative viability (Crenolanib + Vorinostat; first compound 0.03162 µM)	relative viability (Crenolanib + Vorinostat; first compound 0.1 µM)	relative viability (Crenolanib + Vorinostat; first compound 0.3162 µM)	relative viability (Crenolanib + Vorinostat; first compound 1 µM)
NCI-H522	0.639	0.579	0.698	0.517	0.636	0.463	0.536	0.491	1.33	0.989	0.93	0.685	1	0.876	0.855	0.92	0.8
HCC-366	0.278	0.35	0.308	0.346	0.103	0.114	0.115	0.0949					0.377	0.357	0.335	0.426	0.216
A-427	0.761	0.794	0.723	0.685	0.21	0.2	0.198	0.169	0.971	0.873	0.899	0.76	0.848		0.848	0.946	0.83
NCI-H23	0.357	0.335	0.387	0.348	0.447	0.359	0.423	0.308	0.278		0.215	0.226	0.722	0.565	0.621	0.517	0.459
NCI-H1755	0.9	0.85	0.848	0.898	0.525	0.602	0.507	0.608	0.478	0.473	0.4	0.437	0.739	0.941	0.662	0.903	0.832
EPLC-272H	0.97	0.698	0.657	0.257	0.206	0.268	0.283	0.152	0.374	0.23	0.431	0.19	0.435	0.622	0.469	0.308	0.584
PC-3 [JPC-3]	1.09	1.12	1.11	0.662	0.877	0.902	0.945	0.705	0.794	0.777	0.678	0.575	0.75		0.824	0.7	0.582
NCI-H1975	0.799	0.77	0.72	0.734	0.773	0.744	0.645	0.714	0.197	0.307	0.17	0.218	0.729	0.684	0.638	0.71	0.678
NCI-H1703	0.524	0.444	0.527	0.309													
HCC-44	0.961	0.963	1.01	0.941	0.968	0.712	0.887	0.275	1.13	1	0.954	0.634	1.06	1.05	1.19	1.06	1.05
SK-MES-1	0.751	0.659		0.874	0.903	0.904	0.824	0.862	0.763	0.747		0.828	1.15	1.16	0.954	1.1	1.05
NCI-H727	0.746	0.785	0.593		0.641	0.558	0.463	0.515	0.334	0.37	0.514	0.253	1.35	1.31	1.06	1.32	1.07
RERF-LC-KJ	0.894	0.892	0.917	0.799	0.539	0.532	0.473	0.403	1.25	1.29	1.24	1.27	0.759	0.707	0.664	0.689	0.711
NCI-H1623					0.388	0.424	0.441		0.504	0.553	0.545						
Calu-6	0.611	0.572		0.564													
LCLC-103H	0.713	0.802	0.722	0.778	0.426	0.493	0.474	0.374	1.02	0.938	0.976	0.856	0.752	0.791	0.754	0.811	0.746
CAL-12T	0.731	0.643	0.677	0.613	0.416	0.337	0.259	0.293	0.506	0.756	0.43	0.259	0.781	0.67	0.631	0.966	0.66
SK-LU-1	0.595	0.464	0.433	0.512	0.331	0.357	0.312	0.323	0.183	0.218	0.197	0.199	0.735	0.863	0.603	0.811	0.795
NCI-H1651	0.207	0.187	0.194	0.195	0.617	0.678	0.672	0.71	0.768	1.02	0.764	0.77	0.604	0.488	0.583	0.51	0.538
BEN	1.05	1.01	0.961	0.857	0.529	0.549	0.574	0.537	0.361	0.262	0.232	0.385	0.569	0.516	0.581	0.595	0.555
EMC-BAC-2	0.45	0.477	0.485	0.582	0.276	0.271	0.136	0.261	1.17	1.17	1.18	1.08	0.47		0.485	0.447	0.303

From the supplement of paper PMC10307832
